Assay results reported in ChEMBL document CHEMBL4393661, “PRODRUGS FOR NITROREDUCTASE BASED CANCER THERAPY- 2: Novel amide/Ntr combinations targeting PC3 cancer cells” (Eur J Med Chem, 2019).

Molecular target: T1, Putative nitroreductase (Staphylococcus saprophyticus subsp. saprophyticus (strain ATCC 15305 / DSM20229 / NCIMB 8711 / NCTC 7292 / S-41)) (UniProt Q4A0P1)
T1 sequence (whole entry): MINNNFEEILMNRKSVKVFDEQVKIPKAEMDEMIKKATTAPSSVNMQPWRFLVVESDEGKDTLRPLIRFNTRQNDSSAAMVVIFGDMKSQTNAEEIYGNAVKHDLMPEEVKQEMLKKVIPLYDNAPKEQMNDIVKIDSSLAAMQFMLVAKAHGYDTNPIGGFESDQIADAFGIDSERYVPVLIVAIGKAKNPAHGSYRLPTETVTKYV
Test: Substrate activity at Staphylococcus saprophyticus nitroreductase assessed as ratio of Kcat/Km up to 80 mM using NADH as cofactor relative to CB1954/NfsB

| Structure (SMILES) | fold change (FC) |
| --- | --- |
| NC(=O)c1cc(N2CC2)c([N+](=O)[O-])cc1[N+](=O)[O-] | 0.38 |
| CC(=O)Nc1cc([N+](=O)[O-])cc([N+](=O)[O-])c1 | 17.6 |
| CCN(C(C)=O)c1cc([N+](=O)[O-])cc([N+](=O)[O-])c1 | 20.9 |
| NC(=O)c1cc(N(CCCl)CCCl)c([N+](=O)[O-])cc1[N+](=O)[O-] | 1.67 |
